Laboratory results taken from patent US20200368338A1, “CONJUGATE OF WT1-DERIVED PEPTIDES AND COMPOSITION COMPRISING THE SAME” (SUMITOMO DAINIPPON PHARMA CO., LTD., priority 2017, published 2020).

Tested on: HLA-A2402 transgenic mouse
Assay: Evaluation of CTL inducing ability in vivo in HLA-A2402 transgenic mouse (IFNγ ELISPOT assay of splenocytes)
Details: intradermal emulsion with Montanide ISA 51 VG, tail base, two sites, splenocytes one week after administration stimulated with peptide of SEQ ID NO: 4 at 10 μg/ml, FIG. 1
Protocol: The solution was diluted with water for injection to a concentration of 5.0 mg/mL, and then converted to an emulsion by addition of an equal volume of Montanide ISA 51 VG. […] One week after the administration, the mice were sacrificed with CO2 gas. Splenocytes were harvested from spleens removed from the mice. […] In particular, an ELISPOT plate was treated with an anti-mouse-IFNγ antibody on the day before preparation of the splenocyte samples. On the next day, the plate was blocked by treatment with an RPMI 1640 medium with 10% FBS. […] For in vitro stimulation of the cells, the peptide of SEQ ID NO: 4 was dissolved in DMSO at a concentration of 40 mg/ml, diluted with RPMI 1640 with 10% FBS to 40 μg/ml, and added to the splenocyte-containing wells at a final concentration of 10 μg/ml. […] Then, after removal of the culture medium from the wells, the ELISPOT plate was subjected to treatment for cell staining in accordance with the manufacturer's protocol. Stained spots were counted on ImmunoSpot Analyzer (C.T.L.).

“CYTWNQMNL [peptide of SEQ ID NO: 4, HLA-A2402-restricted WT1 peptide]” was tested, and the “induction of CTLs responsive to the peptide of SEQ ID NO: 4 (IFNγ-producing splenocytes)” value was “induced CTLs responsive to the peptide of SEQ ID NO: 4”.
